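Growth conditions: 96-well plates. Treatment: test compound, 48 hours, 5 concentrations. Analysis: linear interpolation between bracketing concentrations; unreached endpoints set to highest concentration. TGI is the concentration that stops growth completely.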
How the values were obtained:
Assay in all cases: inhibition of tumour cell growth, NCI panel, 48 h
[1] = test system: DMS 114 small cell lung
[2] = test system: CAKI-1 renal
[3] = test system: OVCAR-3 ovarian
[4] = test system: K-562 leukemia
[5] = test system: HCT-116 colon
[6] = test system: LXFL 529 NSCLC
[7] = test system: 786-0 renal
[8] = test system: HL-60(TB) leukemia
[9] = test system: ACHN renal
[10] = test system: SK-MEL-2 melanoma
[11] = test system: UO-31 renal
[12] = test system: OVCAR-8 ovarian
[13] = test system: HCT-15 colon
[14] = test system: HOP-18 NSCLC
[15] = test system: HT29 colon
[16] = test system: OVCAR-4 ovarian
[17] = test system: RXF 393 renal
[18] = test system: SF-539 CNS
[19] = test system: EKVX NSCLC
[20] = test system: SK-OV-3 ovarian
[21] = test system: U251 CNS
[22] = test system: RXF-631 renal
[23] = test system: XF 498 CNS
[24] = test system: SW-620 colon
[25] = test system: NCI-H522 lung
[26] = test system: SN12C renal
[27] = test system: M14 melanoma
[28] = test system: A498 renal
[29] = test system: TK-10 renal
[30] = test system: NCI-H23 lung
[31] = test system: MALME-3M melanoma
[32] = test system: SK-MEL-5 melanoma
[33] = test system: HOP-62 NSCLC
[34] = test system: SNB-19 CNS
[35] = test system: UACC-257 melanoma
[36] = test system: SF-268 CNS
[37] = test system: DMS 273 small cell lung
[38] = test system: UACC-62 melanoma
[39] = test system: A549 NSCLC
[40] = test system: IGROV1 ovarian
[41] = test system: LOX IMVI melanoma
[42] = test system: SF-295 CNS
[43] = test system: NCI-H226 lung
[44] = test system: OVCAR-5 ovarian
[45] = test system: KM12 colon
[46] = test system: RPMI-8226 leukemia
[47] = test system: COLO 205 colon
[48] = test system: HOP-92 NSCLC
[49] = test system: CCRF-CEM leukemia
[50] = test system: SK-MEL-28 melanoma
[51] = test system: SNB-75 CNS
[52] = test system: MOLT-4 leukemia
[53] = test system: KM20L2 colon
[54] = test system: NCI-H460 lung
[55] = test system: M19-MEL melanoma
[56] = test system: HCC-2998 colon
[57] = test system: SR leukemia
[58] = test system: SNB-78 CNS
[59] = test system: DLD-1 colon

Molecule `CN1CCCC2[C@@H]3CCC4=C(O)C(=O)CC[C@]4(C)C3CC[C@@]21C` (some centres undefined) has a TGI [1] of over 100 µM, a TGI [2] of over 100 µM and a TGI [3] of over 100 µM. For the same molecule, the TGI [4] was over 100 µM, the TGI [5] was over 100 µM and the TGI [6] was over 100 µM. It also gave a TGI [7] of over 100 µM, a TGI [8] of over 100 µM and a TGI [9] of over 100 µM. For the same molecule, the TGI [10] was over 100 µM, the TGI [11] was over 100 µM and the TGI [12] was over 100 µM. For the same molecule, the TGI [13] was over 100 µM, the TGI [14] was over 100 µM and the TGI [15] was over 100 µM. It also gave a TGI [16] of over 100 µM, a TGI [17] of over 100 µM and a TGI [18] of over 100 µM. It also gave a TGI [19] of over 100 µM, a TGI [20] of over 100 µM and a TGI [21] of over 100 µM. It also gave a TGI [22] of over 100 µM, a TGI [23] of over 100 µM and a TGI [24] of over 100 µM. For the same molecule, the TGI [25] was over 100 µM, the TGI [26] was over 100 µM and the TGI [27] was over 100 µM. The TGI [28] was over 100 µM, the TGI [29] was over 100 µM and the TGI [30] was over 100 µM. The TGI [31] was over 100 µM, the TGI [32] was over 100 µM and the TGI [33] was over 100 µM. For the same molecule, the TGI [34] was over 100 µM, the TGI [35] was over 100 µM and the TGI [36] was over 100 µM. The TGI [37] was over 100 µM, the TGI [38] was over 100 µM and the TGI [39] was over 100 µM. For the same molecule, the TGI [40] was over 100 µM, the TGI [41] was over 100 µM and the TGI [42] was over 100 µM. The TGI [43] was over 100 µM, the TGI [44] was over 100 µM and the TGI [45] was over 100 µM. The TGI [46] was over 100 µM, the TGI [47] was over 100 µM and the TGI [48] was over 100 µM. For the same molecule, the TGI [49] was over 100 µM, the TGI [50] was over 100 µM and the TGI [51] was over 100 µM. For the same molecule, the TGI [52] was over 100 µM, the TGI [53] was over 100 µM and the TGI [54] was over 100 µM.
`N#CNCC(COCc1ccccc1)c1ccccc1` (centres undefined) gave a TGI [1] of over 100 µM, a TGI [55] of over 100 µM and a TGI [4] of over 100 µM. The TGI [5] was over 100 µM, the TGI [7] was over 100 µM and the TGI [8] was over 100 µM. It also gave a TGI [9] of over 100 µM, a TGI [10] of over 100 µM and a TGI [11] of over 100 µM. It also gave a TGI [12] of over 100 µM, a TGI [13] of over 100 µM and a TGI [14] of over 100 µM. The TGI [16] was over 100 µM, the TGI [17] was over 100 µM and the TGI [18] was over 100 µM. It also gave a TGI [19] of over 100 µM, a TGI [20] of over 100 µM and a TGI [21] of over 100 µM. For the same molecule, the TGI [22] was over 100 µM, the TGI [23] was over 100 µM and the TGI [24] was over 100 µM. The TGI [25] was over 100 µM, the TGI [26] was over 100 µM and the TGI [27] was over 100 µM. The TGI [28] was over 100 µM, the TGI [29] was over 100 µM and the TGI [30] was over 100 µM. It also gave a TGI [31] of over 100 µM, a TGI [32] of over 100 µM and a TGI [33] of over 100 µM. The TGI [34] was over 100 µM, the TGI [36] was over 100 µM and the TGI [37] was over 100 µM. For the same molecule, the TGI [38] was over 100 µM, the TGI [39] was over 100 µM and the TGI [40] was over 100 µM. For the same molecule, the TGI [41] was over 100 µM, the TGI [43] was over 100 µM and the TGI [46] was over 100 µM. The TGI [47] was over 100 µM, the TGI [48] was over 100 µM and the TGI [49] was over 100 µM. For the same molecule, the TGI [50] was over 100 µM, the TGI [51] was over 100 µM and the TGI [52] was over 100 µM. It also gave a TGI [53] of over 100 µM, a TGI [54] of over 100 µM and a TGI [56] of over 100 µM.
`O=C(CN1CCN(c2cccc(Cl)c2)CC1)N1CCc2c([nH]c3ccccc23)C1c1cccnc1` (centres undefined) was tested, and the TGI [57] was 7.19 µM, the TGI [1] was 39.4 µM and the TGI [2] was 54.7 µM. The TGI [3] was 42.2 µM, the TGI [55] was 68.6 µM and the TGI [4] was 17.8 µM. The TGI [5] was 17 µM, the TGI [7] was 44.3 µM and the TGI [9] was over 100 µM. The TGI [11] was 57.7 µM, the TGI [12] was over 100 µM and the TGI [13] was over 100 µM. It also gave a TGI [14] of 97.8 µM, a TGI [15] of 15.9 µM and a TGI [16] of 75.7 µM. For the same molecule, the TGI [17] was 14.8 µM, the TGI [18] was 42.3 µM and the TGI [19] was 94.1 µM. For the same molecule, the TGI [20] was over 100 µM, the TGI [21] was 48.8 µM and the TGI [22] was 40.4 µM. For the same molecule, the TGI [23] was 35.9 µM, the TGI [24] was 52 µM and the TGI [25] was 48.6 µM. It also gave a TGI [26] of over 100 µM, a TGI [27] of 19.4 µM and a TGI [28] of 67.9 µM. It also gave a TGI [29] of over 100 µM, a TGI [30] of 50.3 µM and a TGI [58] of over 100 µM. For the same molecule, the TGI [32] was 32.6 µM, the TGI [33] was 63.9 µM and the TGI [34] was over 100 µM. For the same molecule, the TGI [35] was 35.4 µM, the TGI [36] was over 100 µM and the TGI [37] was 84.5 µM. For the same molecule, the TGI [38] was 39.3 µM, the TGI [39] was over 100 µM and the TGI [40] was over 100 µM. It also gave a TGI [42] of 50.8 µM, a TGI [44] of 45.2 µM and a TGI [45] of 20.2 µM. It also gave a TGI [59] of over 100 µM, a TGI [46] of 5.26 µM and a TGI [48] of 42 µM. For the same molecule, the TGI [49] was 17.8 µM, the TGI [50] was over 100 µM and the TGI [51] was 26.6 µM. It also gave a TGI [52] of 6.94 µM, a TGI [53] of 11.7 µM and a TGI [54] of 33.1 µM. For the same molecule, the TGI [56] was 21.6 µM.

Reference: PubChem BioAssay (NCI)
